“Also recorded” adds a separate entry of the source. Structures can show the parent of a compound that is named as a salt. Where two headings read alike, the source gives them in different places. * marks the point of attachment. Cbz = O=C(OCc1ccccc1)*; CH2F = FC*
What was measured:
[1] = system: mechanical hyperalgesia induced by 2′,3′-dideoxycytidine (ddC); assay: ddC-induced mechanical hyperalgesia, paw-withdrawal threshold (Ugo Basile Analgesymeter); assay type: in vivo, rat; settings: inhibitor 5 μg i.d. hind paw, day 5 after ddC 50 mg/kg i.v., read 30 min after inhibitor, p<0.05
Method: (§1) Experiments were performed on 220-260-g male Sprague-Dawley rats (Charles River, Fremont, Calif., USA). Rats were housed in groups of 2 under a 12-h light-dark cycle. Food and water were available ad libitum. Experiments were carried out in accordance with NIH regulations for the care and use of animals in research, and under approval of the Institutional Animal Care and Use Committee of the University of California, San Francisco.
(§2) The nociceptive mechanical flexion reflex was quantified with an Ugo Basile Analgesymeter® (Stoelting, Chicago, Ill.), which applies a linearly increasing mechanical force to the dorsum of the rat's hind paw. Mechanical paw-withdrawal thresholds were determined in control (saline treated) and test agent treated rats. Four readings were taken at 5-min intervals and the mean of the last three readings were used to define the baseline paw-withdrawal threshold (Aley and Levine, 1999; Aley et al., 2001). The time at which the readings were taken was based on the time course of each test agent (described in results).
(§3) Algesic agents employed in this study were: vincristine sulfate (VCR), 2′,3′-dideoxycytidine (ddC), streptozotocin sulfate (STZ), tumor necrosis factor-α (TNFα) prostaglandin E2 (PGE2), epinephrine (Epi) (Sigma, St. Louis, Mo.) and N-Acetyl Sphingosine (C2-Ceramide obtained from Upstate USA, Inc, Lake Placid, N.Y.). Doses of the algesic agents were, VCR (200 μg/kg), ddC (50 mg/kg), STZ (50 mg/kg), PGE2 (100 ng/paw) and Epi (100 ng/paw). A single i.v. injection of VCR (200 μg/kg) produced significant mechanical hyperalgesia (>30 % reduction in paw-withdrawal threshold). This effect reached maximum on day 5 following the drug administration and was persistent for more then 15 days (Joseph, 2003 #5). STZ (50 mg/kg, i.v.×1), induced diabetes in rats, as indicated by with a blood glucose level >300 mg/dL, and a nociceptive threshold reduction (>30%). This effect reached maximum on day 3 following administration of the neuropathy inducing drug and was persistent for over 15 days (Joseph, 2003 #4).
(§4) TNFα, C2-Ceramide, PGE2, Epi, and all the inhibitors (see Table I) were administered intradermally (i.d.) on the dorsal surface of the hind paw in a volume of 2.5-5.0 μl, via a 30-gauge hypodermic needle. In co-injection experiments, agents were separated by very small air pockets, in one syringe, so that they could be administered with a single cutaneous needle penetration. As a control, all inhibitors were studied for independent effects on baseline nociceptive threshold. Inhibitors were either co-injected (with TNFα, C2-Ceramide, PGE2, and Epi) or administered on day five following the administration of VCR, ddC and STZ. Drugs were either dissolved in saline (VCR, ddC, STZ, TNF-α, PGE2, Epi) or in 10% DMSO (C2-Ceramide and inhibitors).
(§5) Group data are presented as % reduction in nociceptive threshold (mean+/±SEM) and comparisons between groups performed using Student's t-test (paired or unpaired, as appropriate). A probability of p<0.05 was considered statistically significant.
FIG. 1 depicts the effect of inhibitors of caspases administered in the hind paw of the rat, on mechanical hyperalgesia induced by the AIDS therapy drug 2′,3′-dideoxycytidine (ddC). The effect of inhibitors of caspase 1 (BACMK), 2 (Z-VDAD-FMK), 3 (Ac-DMQD-CHO), 8 (IETD-CHO), 9 (Z-LEHD-FMK.TFA), the non-selective broad-spectrum caspase inhibitor (NS) Z-VAD-FMK and the negative control for the non-selective broad-spectrum caspase inhibitor Z-FA-FMK [NS (Con)] on the nociceptive paw-withdrawal thresholds of rats were evaluated. Paw-withdrawal thresholds were measured on the 5th day after injection of ddC and 30 min after the administration of inhibitors. N=8/group, *=p<0.05, with respect to mechanical nociceptive threshold prior to injection of the inhibitor.

[2] = system: mechanical hyperalgesia induced by vincristine (VCR); assay: Vincristine-induced mechanical hyperalgesia, paw-withdrawal threshold; assay type: in vivo, rat; settings: inhibitor 5 μg i.d. hind paw, day 5 after VCR 200 μg/kg i.v., read 30 min after inhibitor, p<0.05
Method: as §1, §2, §3, §4, §5
FIG. 2 depicts the effect of inhibitors of caspases, administered in the hind paw of the rat, on mechanical hyperalgesia induced by the cancer chemotherapy drug Vincristine (VCR). The effect of inhibitors of caspase 1, 2, 3, 8, 9, the non-selective broad-spectrum caspase inhibitor (NS) and the negative control for the non-selective broad-spectrum caspase inhibitor [NS (Con)] on the nociceptive paw-withdrawal thresholds were evaluated. Paw-withdrawal thresholds were measured on the 5th day after injection of VCR and 30 min after the administration of the inhibitors. N=8/group, *=p<0.05, with respect to the value prior to injection of the inhibitor.

[3] = system: mechanical nociceptive threshold; assay: Effect of algesic agents on mechanical nociceptive (paw-withdrawal) threshold; assay type: in vivo, rat; settings: for effect on mechanical nociceptive threshold, dose response: intradermal injection, TNFα 1 ng-1 μg, C2-ceramide 1 μg-20 μg; for reduction in nociceptive threshold: 100 ng/paw i.d.
Method: as §1, §2
(§6) Algesic agents employed in this study were: vincristine sulfate (VCR), 2′,3′-dideoxycytidine (ddC), streptozotocin sulfate (STZ), tumor necrosis factor-α (TNFα) prostaglandin E2 (PGE2), epinephrine (Epi) (Sigma, St. Louis, Mo.) and N-Acetyl Sphingosine (C2-Ceramide obtained from Upstate USA, Inc, Lake Placid, N.Y.). Doses of the algesic agents were, VCR (200 μg/kg), ddC (50 mg/kg), STZ (50 mg/kg), PGE2 (100 ng/paw) and Epi (100 ng/paw).
(§7) Inhibitors of caspases and neutral sphingomyelinase are described in Table I, which is repeated for convenience. The doses of TNFα (100 ng) and C2-Ceramide (10 μg) were based on dose response experiments performed as part of this study. VCR, STZ, and ddC were administered intravenously (i.v.) in a volume of 1 ml/kg, followed by 0.5 ml saline. Control rats received equal volume of saline.
as §4
FIG. 3 depicts: A. Dose response (1 ng-1 μg) curve for the effect of TNF-α on mechanical nociceptive threshold, and B. Onset and time course of mechanical hyperalgesia induced by 100 ng of TNF-α. N=6/group.
FIG. 5 depicts the dose response (1-20 μg) curve for the effect of ceramide on the mechanical nociceptive threshold. N=6/group.

[4] = system: mechanical hyperalgesia induced by TNF-α; assay: TNFα-induced mechanical hyperalgesia, inhibitors co-injected; assay type: in vivo, rat; settings: read at 30 min
Method: as §1, §2
as §7, with “of saline. […]” for “of saline.”
FIG. 4 depicts the effect of inhibitors of caspases and sphingomyelinase on mechanical hyperalgesia induced by tumor necrosis factor alpha (TNF-α). The effect of inhibitors of caspase 1, 2, 3, 8, 9, the non-selective broad-spectrum caspase inhibitor (NS), the negative control for the non-selective broad-spectrum caspase inhibitor [NS (Con)], and the neutral sphingomyelinase inhibitor (GW4869) on the nociceptive paw-withdrawal thresholds of rats was evaluated. The inhibitors were co-injected with TNF-α and the paw-withdrawal thresholds measured 30 min after the drug administration. […]

[5] = STZ 50 mg/kg i.v. ×1; cited from earlier work
[6] = system: mechanical nociceptive threshold; settings: cited from earlier work
[7] = system: mechanical hyperalgesia induced by ceramide; assay: C2-ceramide-induced mechanical hyperalgesia, inhibitors co-injected; assay type: in vivo, rat; settings: inhibitor 5 μg co-injected i.d. with C2-ceramide 10 μg, read at 1 hr; p<0.05
Method: as §1, §2
Inhibitors of caspases and neutral sphingomyelinase are described in Table I, which is repeated for convenience. […]
FIG. 6 depicts the effect of inhibitors of caspases on mechanical hyperalgesia induced by ceramide. […] The inhibitors were co-injected with ceramide and paw-withdrawal thresholds measured 1 hr after the drug administration. […]

[8] = system: prostaglandin E2 (PGE2)-induced hyperalgesia; assay: PGE2-induced mechanical hyperalgesia, inhibitor co-injected; assay type: in vivo, rat; settings: co-injected with PGE2 100 ng/paw, read at 30 min
Method: as §1
as §2, with “results). […]” for “results).”
(§8) FIG. 7 depicts the effect of the non-selective caspase inhibitor on prostaglandin E2 (PGE2), epinephrine (Epi)-induced hyperalgesia. The caspase inhibitor was co-injected with PGE2 and epinephrine and the paw-withdrawal thresholds measured 30 min after the drug administration. […]

[9] = system: mechanical nociceptive threshold of normal/control rats; assay: Independent effect of inhibitors on baseline mechanical nociceptive threshold in control rats; assay type: in vivo, rat; settings: i.d. hind paw, data not shown
Method: as §1, §2
TNFα, C2-Ceramide, PGE2, Epi, and all the inhibitors (see Table I) were administered intradermally (i.d.) on the dorsal surface of the hind paw in a volume of 2.5-5.0 μl, via a 30-gauge hypodermic needle. […]

[10] = system: epinephrine (Epi)-induced hyperalgesia; assay: Epinephrine-induced mechanical hyperalgesia, inhibitor co-injected; assay type: in vivo, rat; settings: co-injected with Epi 100 ng/paw, read at 30 min
Method: as §1
as §2, with “results). […]” for “results).”
as §8

[11] = system: STZ-induced mechanical hyperalgesia; assay: STZ (diabetes)-induced mechanical hyperalgesia, paw-withdrawal threshold; assay type: in vivo, rat; settings: single test dose 5 μg i.d. hind paw, rats treated with STZ 50 mg/kg i.v.
Method: as §1, §2
as §6, with “Doses of the algesic agents were, VCR (200 μg/kg), ddC (50 mg/kg), STZ (50 mg/kg), PGE2 (100 ng/paw) and Epi (100 ng/paw).” left out

[12] = single i.v. injection: VCR 200 μg/kg, STZ 50 mg/kg
[13] = listed as inhibitor of caspase 3
[14] = inhibitor 5 μg co-injected i.d. with TNFα 100 ng, p<0.05

## CC(C)(C)OC(=O)N[C@@H](CC(=O)OCc1ccccc1)C(=O)CCl [BACMK, Boc-Asp(Obzl)-CMK]
[1]
  effect on ddC-induced mechanical hyperalgesia: significantly attenuated hyperalgesia
[2]
  effect on vincristine-induced mechanical hyperalgesia: significantly attenuated hyperalgesia

## CCCCCCCCCCCCC/C=C/[C@@H](O)[C@H](CO)NC(C)=O [C2-ceramide, N-Acetyl Sphingosine]
[3]
  effect on mechanical nociceptive threshold, dose response: dose-dependent hyperalgesia

## CNC[C@H](O)c1ccc(O)c(O)c1 [Epi, epinephrine]
[3]
  reduction in nociceptive threshold: significant reduction in nociceptive threshold

## O=C(/C=C/c1ccc(/C=C/C(=O)Nc2ccc(C3=NCCN3)cc2)cc1)Nc1ccc(C2=NCCN2)cc1 [GW4869]
[4]; sphingomyelinase inhibitor 1 μg co-injected i.d. with TNFα 100 ng
  effect on TNFα-induced hyperalgesia: markedly attenuated

## CCCCC[C@H](O)/C=C/[C@H]1[C@H](O)CC(=O)[C@@H]1C/C=C\CCCC(=O)O [PGE2, prostaglandin E2]
[3]
  reduction in nociceptive threshold: significant reduction in nociceptive threshold

## CN(N=O)C(=O)N[C@@H]1[C@@H](O)[C@H](O)[C@@H](CO)O[C@@H]1O [STZ, streptozotocin sulfate]
[5]
  blood glucose level: > 300 mg/dL
[6]; [12]
  day of maximum hyperalgesic effect after drug administration: 3 days

## CC[C@]1(O)C[C@H]2CN(CCc3c([nH]c4ccccc34)[C@@](C(=O)OC)(c3cc4c(cc3OC)N(C=O)[C@H]3[C@@](O)(C(=O)OC)[C@H](OC(C)=O)[C@]5(CC)C=CCN6CC[C@]43[C@@H]65)C2)C1 [VCR, vincristine sulfate]
[6]; [12]
  day of maximum hyperalgesic effect after drug administration: 5 days

## Nc1ccn([C@H]2CC[C@@H](CO)O2)c(=O)n1 [ddC, 2′,3′-dideoxycytidine]
[6]; single dose ddC 50 mg/kg i.v., from day 1
  reduction in nociceptive threshold: significant reduction in nociceptive threshold
[6]; single i.v. injection: VCR 200 μg/kg, STZ 50 mg/kg, ddC 50 mg/kg
  persistence of hyperalgesia: over 20 days

## Ac-Asp-Met-Gin-Asp-CHO [Ac-DMQD-CHO]
[1]; [13]
  effect on ddC-induced mechanical hyperalgesia: significantly reversed mechanical hyperalgesia; also recorded: markedly attenuating ddC hyperalgesia
[2]; [13]
  effect on vincristine-induced mechanical hyperalgesia: significantly reversed mechanical hyperalgesia; also recorded: only moderately attenuated

## Cbz-VD(OMe)VAD(OMe)-CH2F [Z-VDAD-FMK]
[1]
  effect on ddC-induced mechanical hyperalgesia: significantly attenuated hyperalgesia
[2]
  effect on vincristine-induced mechanical hyperalgesia: significantly attenuated hyperalgesia

## IETD-CHO
[1]
  effect on ddC-induced mechanical hyperalgesia: significantly attenuated hyperalgesia
[2]
  effect on vincristine-induced mechanical hyperalgesia: significantly attenuated hyperalgesia

## TNFα
[3]; TNFα 100 ng i.d.
  latency to onset of hyperalgesia: approximately 5 minutes
[3]; TNFα 100 ng i.d., at 3 hours
  time course of hyperalgesia: not attenuated at 3 hours
[3]
  effect on mechanical nociceptive threshold, dose response: dose-dependent (1 ng-1 μg) decrease in mechanical nociceptive threshold

## Z-Leu-Glu(OMe)-His-Asp-(OMe)FMK [Z-LEHD-FMK.TFA]
[1]
  effect on ddC-induced mechanical hyperalgesia: significantly attenuated hyperalgesia
[2]
  effect on vincristine-induced mechanical hyperalgesia: significantly attenuated hyperalgesia

## Z-Phe-Ala-CH2F [Z-FA-FMK]
[4]; [14]
  effect on TNFα-induced hyperalgesia: not
[7]
  effect on C2-ceramide-induced hyperalgesia: not

## Z-Val-Ala-Asp(OMe)-Fluoro methyl ester [Z-VAD-FMK]
[4]; [14]
  effect on TNFα-induced hyperalgesia: markedly attenuated
[8]
  effect on PGE2-induced hyperalgesia: had no effect on the hyperalgesia
[9]
  effect of inhibitor alone on mechanical nociceptive threshold: had no effect on mechanical nociceptive threshold
[10]
  effect on Epi-induced hyperalgesia: had no effect on the hyperalgesia
[7]
  effect on C2-ceramide-induced hyperalgesia: significantly less hyperalgesia
[11]
  effect on STZ-induced mechanical hyperalgesia: did not produce significant attenuation of hyperalgesia; also recorded: having no effect
[1]
  effect on ddC-induced mechanical hyperalgesia: markedly attenuated; also recorded: markedly attenuating pain-related behavior
[2]
  effect on vincristine-induced mechanical hyperalgesia: markedly attenuated; also recorded: moderately attenuating pain

From patent publication US20060073504A1, “Treatment of pain by inhibition of caspase signaling” (The Regents of the University of California, priority 2004, published 2006)
